Measurements from patent publication US10829520B2, “Beta-hairpin peptidomimetics” (POLYPHOR AG, priority 2015, dated 2020).
Where a SMILES comes first, the peptide text is derived from it. Bridges are numbered along the chain shown (N, C = ends). Roman numbers before positions name the chains, in order. [ ]: non-standard residue; d: D form. Tle = CC(C)(C)[C@H](N)C(=O)O; dDab = NCC[C@@H](N)C(=O)O; Nle = CCCC[C@H](N)C(=O)O; Orn = NCCC[C@H](N)C(=O)O; Dab = NCC[C@H](N)C(=O)O; dAze = O=C(O)[C@H]1CCN1; Sar = CNCC(=O)O

Columns and labels:
Type in all cases: cell-based
[1] = system: Acinetobacter baumannii 872842; conditions: 872842
[2] = system: Acinetobacter baumannii DSM 30008; conditions: DSM 30008
Method in brief: (§1)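 MIC in μg/mL read as absence of visible growth after 18-20 h incubation at 35° C. Bacteria at about 10^6 CFU/mL in MH-II (cation-adjusted) broth plus 0.002% P-80 were exposed to two-fold peptide dilutions per standard CLSI microdilution.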

Escherichia coli 926415 = conditions: 926415
[3] = system: Escherichia coli ATCC 25922; conditions: ATCC 25922
Method in brief: as §1

[4] = system: Klebsiella pneumoniae 968733; conditions: 968733
[5] = system: Klebsiella pneumoniae SSI #3010; conditions: SSI #3010
Method in brief: as §1

[6] = system: Pseudomonas aeruginosa ATCC 27853; conditions: ATCC 27853
Method in brief: as §1

[7] = system: human red blood cells (hRBC); test: Hemolysis of human red blood cells; conditions: red cells of human, 1 h
Method in brief: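 Fresh human red blood cells are washed in PBS, then shaken with peptide (100 μg/mL) at 37° C. for 1 h, final erythrocyte density about 0.9×10^9 cells/mL. After centrifugation, diluted supernatants are read at 540 nm against buffer (0%) and Triton X-100 (100%) lysis controls.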

| Acinetobacter baumannii 872842 MIC [1] | Acinetobacter baumannii DSM 30008 MIC [2] | Escherichia coli 926415 MIC (Escherichia coli 926415) | Escherichia coli ATCC 25922 MIC [3] | Klebsiella pneumoniae 968733 MIC [4] | Klebsiella pneumoniae SSI #3010 MIC [5] | Pseudomonas aeruginosa ATCC 27853 MIC [6] | Structure (SMILES) | Hemolysis at 100 μg/mL [7]; 100 | Hemolysis at 100 μg/mL ([7]; 100 μg/mL) |
| --- | --- | --- | --- | --- | --- | --- | --- | --- | --- |
| 1 µg/mL | 0.5 µg/mL | 0.5 µg/mL | 0.5 µg/mL | 0.5 µg/mL | 0.5 µg/mL | 0.25 µg/mL | CCCC[C@@H]1NC(=O)[C@@H]2CCCN2C(=O)[C@H]2CCCN2C(=O)[C@H](CO)NC(=O)[C@H](C)NC(=O)[C@H](C(C)(C)C)NC(=O)[C@H](CCN)NC(=O)[C@H](Cc2c[nH]c3ccccc23)NC(=O)[C@H](CCN)NC(=O)[C@H](CCC(=O)N[C@@H](CCN)C(=O)N[C@H](CCN)C(=O)N[C@H]2CCNC(=O)[C@H]([C@@H](C)O)NC(=O)[C@H](CCN)NC(=O)[C@H](CCN)NC(=O)[C@H](CC(C)C)NC(=O)[C@@H](CC(C)C)NC(=O)[C@H](CCN)NC2=O)NC(=O)[C@H](CCCN)NC(=O)[C@H](CCN)NC(=O)[C@H](Cc2ccc(O)cc2)NC(=O)[C@H](CO)NC1=O [Ex. 78] (I: cyclo([Nle]SY[Dab][Orn]E[Dab]W[Dab][Tle]AS[dP]P) / II: [Dab][dDab][Dab][Dab][dL]L[Dab][Dab]T; amide I:6-II:N; lactam II:3-II:C) | 1% | – |
| 2 µg/mL | 1 µg/mL | 0.5 µg/mL | 0.5 µg/mL | 2 µg/mL | 1 µg/mL | 0.5 µg/mL | CCCC[C@@H]1NC(=O)[C@@H]2CCCN2C(=O)[C@H]2CCCN2C(=O)[C@H](CO)NC(=O)[C@H](C)NC(=O)[C@H](C(C)(C)C)NC(=O)[C@H](CCN)NC(=O)[C@H](Cc2c[nH]c3ccccc23)NC(=O)[C@H](CCN)NC(=O)[C@@H](CCN)NC(=O)[C@H](CCC(=O)N[C@@H](CCN)C(=O)N[C@@H](C(=O)N[C@@H](CCN)C(=O)N[C@H]2CCNC(=O)[C@H]([C@@H](C)O)NC(=O)[C@H](CCN)NC(=O)[C@H](CCN)NC(=O)[C@H](CC(C)C)NC(=O)[C@@H](Cc3ccccc3)NC(=O)[C@H](CCN)NC2=O)[C@H](C)O)NC(=O)[C@H](CCN)NC(=O)[C@H](Cc2ccc(O)cc2)NC(=O)[C@H](CO)NC1=O [Ex. 81] (I: cyclo(W[Dab][Tle]AS[dP]P[Nle]SY[Dab]E[dDab][Dab]) / II: [Dab][dT][Dab][Dab][Dab][dF]L[Dab][Dab]T; amide I:12-II:N; lactam II:4-II:C) | 1% | – |
| 0.5 µg/mL | 1 µg/mL | 0.5 µg/mL | 0.5 µg/mL | 0.5 µg/mL | 0.5 µg/mL | 0.5 µg/mL | CC(C)C[C@@H]1NC(=O)[C@@H](CC(C)C)NC(=O)[C@H](CCN)NC(=O)[C@@H](NC(=O)[C@H](CCN)NC(=O)[C@@H](NC(=O)[C@H](CCN)NC(=O)CC[C@@H]2NC(=O)[C@H](CCN)NC(=O)[C@H](Cc3ccc(O)cc3)NC(=O)[C@H]([C@@H](C)O)NC(=O)[C@H](C(C)C)NC(=O)[C@@H]3CCCN3C(=O)[C@H]3CCN3C(=O)[C@H](CO)NC(=O)[C@H](C)NC(=O)[C@H](C(C)(C)C)NC(=O)[C@H](CCN)NC(=O)[C@H](Cc3c[nH]c4ccccc34)NC(=O)[C@H](CCN)NC(=O)[C@@H](CCN)NC2=O)[C@@H](C)O)CCNC(=O)[C@H]([C@@H](C)O)NC(=O)[C@H](CCN)NC(=O)[C@H](CCN)NC1=O [Ex. 82] (I: cyclo(AS[dAze]PVTY[Dab]E[dDab][Dab]W[Dab][Tle]) / II: [Dab]T[Dab][Dab][Dab][dL]L[Dab][Dab]T; amide I:9-II:N; lactam II:4-II:C) | <1% | – |

The next lines start with the compound.

| Structure (SMILES) | Acinetobacter baumannii 872842 MIC [1] | Acinetobacter baumannii DSM 30008 MIC [2] | Escherichia coli 926415 MIC (Escherichia coli 926415) | Escherichia coli ATCC 25922 MIC [3] | Klebsiella pneumoniae 968733 MIC [4] | Klebsiella pneumoniae SSI #3010 MIC [5] | Pseudomonas aeruginosa ATCC 27853 MIC [6] | Hemolysis at 100 μg/mL [7]; 100 | Hemolysis at 100 μg/mL ([7]; 100 μg/mL) |
| --- | --- | --- | --- | --- | --- | --- | --- | --- | --- |
| CC(C)C[C@@H]1NC(=O)[C@@H](CC(C)C)NC(=O)[C@H](CCN)NC(=O)[C@@H](NC(=O)[C@H](CCN)NC(=O)CN(C)C(=O)C[C@@H]2NC(=O)[C@H](CCN)NC(=O)[C@H](Cc3ccc(O)cc3)NC(=O)[C@H](CO)NC(=O)[C@H](CC(C)C)NC(=O)[C@@H]3CCCN3C(=O)[C@H]3CCCN3C(=O)[C@H](CO)NC(=O)[C@H](C)NC(=O)[C@H](C(C)C)NC(=O)[C@H](CCN)NC(=O)[C@H](Cc3c[nH]c4ccccc34)NC(=O)[C@H](CCN)NC(=O)[C@@H](CCN)NC2=O)CCNC(=O)[C@H]([C@@H](C)O)NC(=O)[C@H](CCN)NC(=O)[C@H](CCN)NC1=O [Ex. 76] (I: cyclo(W[Dab]VAS[dP]PLSY[Dab]D[dDab][Dab]) / II: [Sar][Dab][Dab][Dab][dL]L[Dab][Dab]T; amide I:12-II:N; lactam II:3-II:C) | 0.5 µg/mL | 1 µg/mL | 0.5 µg/mL | 2 µg/mL | 2 µg/mL | 2 µg/mL | 0.5 µg/mL | 1% | – |
| CC(C)C[C@@H]1NC(=O)[C@@H](CC(C)C)NC(=O)[C@H](CCN)NC(=O)[C@@H](NC(=O)[C@H](CCN)NC(=O)CN(C)C(=O)C[C@@H]2NC(=O)[C@H](CCCN)NC(=O)[C@H](CCN)NC(=O)[C@H](Cc3ccc(O)cc3)NC(=O)[C@H](CO)NC(=O)[C@H](CC(C)C)NC(=O)[C@@H]3CCCN3C(=O)[C@H]3CCCN3C(=O)[C@H](Cc3ccc(O)cc3)NC(=O)[C@H](C)NC(=O)[C@H](C(C)(C)C)NC(=O)[C@H](CCN)NC(=O)[C@H](Cc3c[nH]c4ccccc34)NC(=O)[C@H](CCN)NC2=O)CCNC(=O)[C@H]([C@@H](C)O)NC(=O)[C@H](CCN)NC(=O)[C@H](CCN)NC1=O [Ex. 77] (I: cyclo(LSY[Dab][Orn]D[Dab]W[Dab][Tle]AY[dP]P) / II: [Sar][Dab][Dab][Dab][dL]L[Dab][Dab]T; amide I:6-II:N; lactam II:3-II:C) | 2 µg/mL | 1 µg/mL | 0.5 µg/mL | 1 µg/mL | 2 µg/mL | 1 µg/mL | 1 µg/mL | <1% | – |
| CC(C)C[C@@H]1NC(=O)[C@@H](CC(C)C)NC(=O)[C@H](CCN)NC(=O)[C@@H](NC(=O)[C@H](CCN)NC(=O)[C@H](CCN)NC(=O)[C@@H]2CCC(=O)N[C@@H](CCN)C(=O)N[C@@H](Cc3c[nH]c4ccccc34)C(=O)N[C@H]3CSSC[C@H](NC(=O)[C@H](Cc4ccc(O)cc4)NC(=O)[C@H](CO)NC(=O)[C@H](CC(C)C)NC(=O)[C@@H]4CCCN4C(=O)[C@H]4CCCN4C(=O)[C@H](CO)NC(=O)[C@H](C)NC(=O)[C@H](C(C)C)NC3=O)C(=O)NCC(=O)N2)CCNC(=O)[C@H]([C@@H](C)O)NC(=O)[C@H](CCN)NC(=O)[C@H](CCN)NC1=O [Ex. 79] ([Dab]WCVAS[dP]PLSYCGE[Dab][Dab][Dab][Dab][dL]L[Dab][Dab]T; disulfide 3-12; lactam 17-C, N-14) | 2 µg/mL | 0.5 µg/mL | 2 µg/mL | 0.5 µg/mL | 8 µg/mL | 1 µg/mL | 0.5 µg/mL | – | <1% |
| CC(C)C[C@@H]1NC(=O)[C@@H](Cc2ccccc2)NC(=O)[C@H](CCN)NC(=O)[C@@H](NC(=O)[C@H](CCN)NC(=O)[C@@H](NC(=O)[C@H](CCN)NC(=O)CC[C@@H]2NC(=O)[C@H](CCN)NC(=O)[C@H](Cc3ccc(O)cc3)NC(=O)[C@H]([C@@H](C)O)NC(=O)[C@H](C(C)C)NC(=O)[C@@H]3CCCN3C(=O)[C@H]3CCN3C(=O)[C@H](CO)NC(=O)[C@H](C)NC(=O)[C@H](C(C)(C)C)NC(=O)[C@H](CCN)NC(=O)[C@H](Cc3c[nH]c4ccccc34)NC(=O)[C@H](CCN)NC(=O)[C@@H](CCN)NC2=O)[C@@H](C)O)CCNC(=O)[C@H]([C@@H](C)O)NC(=O)[C@H](CCN)NC(=O)[C@H](CCN)NC1=O [Ex. 80] (I: cyclo(W[Dab][Tle]AS[dAze]PVTY[Dab]E[dDab][Dab]) / II: [Dab]T[Dab][Dab][Dab][dF]L[Dab][Dab]T; amide I:12-II:N; lactam II:4-II:C) | 0.5 µg/mL | 0.5 µg/mL | 0.25 µg/mL | 0.25 µg/mL | 1 µg/mL | 0.25 µg/mL | 0.25 µg/mL | <1% | – |
